Experiments:
cathepsin B [1] = biological target: T1, cathepsin B (Homo sapiens, UniProt P07858); experiment: fluorescence protease assay; assay type: biochemical
cathepsin B [2] = biological target: T1, cathepsin B; experiment: fluorogenic substrate cleavage assay; assay type: biochemical

Compound | IC50 (cathepsin B [1]) | fluorogenic substrate cleavage assay (cathepsin B [2])
CC(C)C[C@H](NC(=O)OCc1ccccc1)C(=O)N[C@H](C=O)C[C@@H]1CCNC1=O [GC-373] | 9.67 nM | 
Cc1cc(=O)oc2cc(NC(=O)[C@H](CCCNC(=N)N)NC(=O)[C@H](CC(C)C)NC(=O)OCc3ccccc3)ccc12 [Z-Leu-Arg-AMC] |  | The cleavage at the site between arginine and AMC dye by cathepsin B resulted in the increase of fluorescence intensity

Source: PMC4586312 (Nanomedicine : nanotechnology, biology, and medicine, 2015)
